Measured values taken from patent EP0393530B1, “5,11-dihydro-6H-pyrido[2,3,-b][1,4]benzodiazepin-6-ones and -thiones and their use in the prevention or treatment of AIDS” (BOEHRINGER INGELHEIM PHARMACEUTICALS INC., priority 1989, dated 1990).

What was measured:
[1] = target: T1, HIV-1 reverse transcriptase (Human immunodeficiency virus type 1 group M subtype B, UniProt P03367); assay: Reverse Transcriptase (RT) Assay; type: biochemical; conditions: RNA-dependent DNA polymerase activity
T1 construct: Reverse transcriptase enzyme from the LAV strain of Human Immunodeficiency Virus (HIV-1); made in house; host or cells: E. coli JM109, clone pBRTprt1+ in vector pIBI21 (lac promoter, IPTG induction)
From the text: Utilizing the Reverse Transcriptase (RT) Assay described below, compounds can be tested for their ability to inhibit the RNA-dependent DNA polymerase activity of HIV RT. Certain specific compounds, described in the Examples which appear below, were so tested.
Among the enzymes for which Human Immunodeficiency Virus (HIV-1) encodes is a reverse transcriptase (1), so-named because it transcribes a DNA copy from an RNA template. This activity can be quantitatively measured in a cell-free enzyme assay which has been previously described (2), and is based upon the observation that reverse transcriptase is able to use a synthetic template [poly r(C) primed with oligo d(G)] to transcribe a radio-labelled, acid-precipitable DNA strand utilizing ³H-dGTP as a substrate.
a) Preparation of the enzyme Reverse transcriptase enzyme from the LAV strain of Human Immunodeficiency Virus (HIV-1) (1) was isolated from the bacterial strain JM109 (3) expressing the DNA clone pBRTprt1+ (2) which is under the control of the lac promotor in the expression vector pIBI21 (4). An overnight culture grown in 2XYT medium (37°C, 225 rpm) (5) supplemented with 100 µg/ml ampicillin for positive selection is inoculated at a 1:40 dilution into M9 medium supplemented with 10µg/ml thiamine, 0.5% casamino acids, and 50 µg/ml ampicillin (5). The culture is incubated (37°C, 225 rpm) until it reaches an OD540 of 0.3-0.4. At that time the repressor inhibitor IPTG (isopropyl b-D-thiogalactopyranoside) is added to 0.5mM and incubated for 2 additional hours. Bacteria are pelleted, resuspended in a 50mM Tris, 0.6mM EDTA, 0.375M NaCl buffer and digested by the addition of lysozyme (1mg/ml) for 30 minutes on ice. The cells are lysed by the addition to 0.2% NP-40 and brought to 1M NaCl. After removal of the insoluble debris by centrifugation, the protein is precipitated by the addition of 3 volumes of saturated aqueous ammonium sulfate. The enzyme is pelleted, resuspended in RT buffer (50mM Tris pH 7.5, 1mM EDTA, 5mM DTT, 0.1% NP-40, 0.1M NaCl, and 50% glycerol) and stored at -70°C for further use. b) Composition of 2X concentrated stock reaction mixture
The 2X concentrated stock reaction mixture is aliquoted and stored at -20°C. The mixture is stable and thawed for use in each assay. This enzyme assay has been adapted to a 96 well microtiter plate system, and has been previously described (6). Tris buffer (50 mM, pH 7.4), vehicle (solvent diluted to match the compound dilution), or compounds in vehicle are dispensed into 96-well miciotiter plates (10µl/well; 3 wells/compound). The HIV RT enzyme is thawed, diluted in 50mM Tris pH 7.4 so that fifteen µl of diluted enzyme contain 0.001 Unit (one unit is that amount of enzyme to transform 1 micromole of substrate per minute at 25°C), and 15µl are dispensed per well. Twenty µl of 0.12-0.5M EDTA are added to the first three wells of the microtiter plate. EDTA chelates the Mg⁺⁺ present and prevents reverse transcription. This group serves as background polymerization which is subtracted from all other groups. Twenty-five µl of the 2X reaction mixture are added to all wells and the assay is allowed to incubate at room temperature for 60 minutes. The assay is terminated by precipitating the DNA in each well with 50µl of trichloracetic acid (TCA) (10% w/v) in sodium pyrophosphate (1% w/v). The microtiter plate is incubated for 15 minutes at 4°C and the precipitate is fixed onto #30 glass fiber paper (Schleicher & Schuell) using a Skatron semi-automatic harvester. The filters are then washed with additional TCA (5%) containing sodium pyrophosphate (1%), rinsed with aqueous ethanol (70%), dried, and transferred to scintillation vials (6). Each vial receives 2 mls of scintillation cocktail and is counted in a Beckman beta counter.
The calculation for percent inhibition is as follows: [formula]

[2] = system: HTLV-IIIB strain of HIV-1; assay: Human T-Cell Culture Assay (syncytia formation in c8166 cells); type: cell-based; conditions: Human immunodeficiency virus 1, IIIB, 96 h, syncytia four days after virus challenge
Procedure: In order to confirm that compounds which are active in the RT Assay also have the ability to inhibit HIV replication in a living system, compounds according to the invention were also tested in the Human T-Cell Culture Assay described below.
Assay Theory: Formation of syncytia is a feature of in vitro cultures of CD4+ T-cells infected with HIV-1. In this assay, T-cells are treated with a putative replication inhibiting compound and then infected with HIV-1. After incubation the culture is checked for the formation of syncytia. The absence or reduction is the number of syncytia is used as a measure of the test compound's ability to inhibit HIV replication.
Assay Method: The target cells, designated c8166, are a subclone of human lymphoma cells of T-cell origin and are established at an initial density of 5x10⁴ per 100 µl in RPMI 1640 (+ 10% fetal bovine serum) culture medium in 96 well flat bottom plates. A selected amount of test compound, dissolved in DMSO is included. After 24 hours, 50-100 TCID50's (the dose that results in induced effect in 50% of test cultures) of the HTLV-IIIB strain of HIV-1 (2) are innoculated into each culture. Control cultures receive compound or virus only. […] The percent inhibition by the test compound is determined by comparison with control values. […]

[3] = MTT Assay for Cellular Cytotoxicity; type: cell-based; conditions: human, H9 cells, five days, EC₅₀ called the highest non-toxic concentration, read-out: Cytotoxity Assay (EC₅₀)
Procedure: In order to roughly assess the cytotoxicity of the compounds provided by the invention, several such compounds were tested in the MTT Cellular Cytotoxicity Assay described below. Compounds having a relatively high EC₅₀ are preferred.
The MTT [3-(4,5-dimethylthiazol-2-yl)-2,5-diphenyl tetrazolium bromide) assay is based on cleavage of tetrazolium bromide by metabolically active cells, resulting in a highly quantitative blue color. This assay has been previously described (1) but his been optimized for the purposes of the testing reported herein.
The H9 cell line (2), an established human lymphoma suspension cell line grown in RPMI 1640 supplemented with 10% fetal bovine serum is used as the target cell line in the assay. Cells (100µl) are plated in microtest plate wells at a concentration of 10⁵ cells per ml in the presence of varying concentrations of inhibitor. The cells are incubated at 37°C in a humidified CO₂ incubator. Five days later, 20µl of MTT (5mg/ml in RPMI 1640, sonicated, 0.2 micron filtered, and stored at 4°C) is added to each well. After 4 hours additional incubation at 37°C, 60µl of Triton-X is added to each well and thoroughly mixed to aid the solubilization of the crystals. Absolute ethanol (5µl) is added to each well and the resulting mixture is incubated for 30 minutes at 60°C and immediately read on a plate reader (Dynatech) at a wavelength of 570nm. […]

## CC(C)(C)OC(=O)CN1c2ccccc2C(=O)Nc2cccnc21 [Example 6]
[1]
  inhibition at 10 µg/mL: 86%

## C=C(Cl)CN1C(=O)c2ccccc2N(CC)c2ncccc21 [Example 1, 5-(2-Chloro-2-propenyl)-11-ethyl-5,11-dihydro-6H-pyrido [2,3-b][1,4]benzodiazepin-6-one]
[1]
  inhibition at 10 µg/mL: 41%

## CCN1C(=O)c2ccccc2N(C)c2nc(Cl)ccc21 [Example 7, 2-Chloro-5-ethyl-11-methyl-5,11-dihydro-6H-pyrido[2,3-b] [1,4]benzodiazepin-6-one]
[1]
  inhibition at 10 µg/mL: 43%

## CCN1c2ccc(C)cc2C(=O)N(C)c2cccnc21 [Example 4, 5,8-Dimethy-11-ethyl-5,11-dihydro-6H-pyrido[2,3-b][1,4]benzodiazepin-6-one]
[1]
  inhibition at 10 µg/mL: 91%
[2]; @19µM
  inhibition at 19 µM: 100%
[3]
  CC50 at 120 h: 40 µM

## CCCN1C(=O)c2ccccc2N(C)c2ncccc21 [Example 9e, 5-n-Propyl-11-methyl-5,11-dihydro-6H-pyrido[2,3-b][1,4]benzodiazepin-6-one]
[1]
  inhibition at 10 µg/mL: 38%

## Cc1ccc2c(c1)C(=O)N(C)c1ccc(C)nc1N2C [Example 2, 2,5,8,11-Tetramethyl-5,11-dihydro-6H-pyrido[2,3-b][1,4]benzodiazepin-6-one]
[1]
  inhibition at 10 µg/mL: 50%

## Cc1ccc2c(n1)N(C)c1c(C)cccc1C(=O)N2C [Example 5, 2,5,10,11-Tetramethyl-5,11-dihydro-6H-pyrido[2,3-b][1,4]benzodiazepin-6-one]
[1]
  inhibition at 10 µg/mL: 84%

## CCN1C(=O)c2ccccc2N(CC)c2ncccc21 [Example 9g, 5,11-Diethyl-5,11-dihydro-6H-pyrido[2,3-b][1,4]benzodiazepin-6-one]
[1]
  inhibition at 10 µg/mL: 87%
[2]; @75µM
  inhibition at 75 µM: 100%
[3]
  CC50 at 120 h: 100 µM

## C=CCN1C(=O)c2ccccc2N(CC)c2ncccc21 [Example 9h, 5-(2-Propenyl)-11-ethyl-5,11-dihydro-6H-pyrido[2,3-b][1,4]benzodiazepin-6-one]
[1]
  inhibition at 10 µg/mL: 70%

## CCN1c2ccccc2C(=O)N(C)c2cccnc21 [Example 9f, 5-Methyl-11-ethyl-5,11-dihydro-6H-pyrido[2,3-b][1,4]benzodiazepin-6-one]
[1]
  inhibition at 10 µg/mL: 94%

## CN1c2ccccc2C(=O)Nc2cccnc21 [Example 9a, 11-Methyl-5,11-dihydro-6H-pyrido[2,3-b][1,4]benzodiazepin-6-one]
[1]
  inhibition at 10 µg/mL: 17%

## CCN1c2ccccc2C(=O)Nc2cccnc21 [Example 9b, 11-Ethyl-5,11-dihydro-6H-pyrido[2,3-b][1,4]benzodiazepin-6-one]
[1]
  inhibition at 10 µg/mL: 82%

## O=C1Nc2cccnc2Nc2ccccc21 [Example 9c, 5,11-dihydro-6H-pyrido[2,3-b][1,4]benzodiazepin-6-one]
[1]
  inhibition at 10 µg/mL: 55%

## Cc1ccc2c(c1)C(=O)N(C)c1cccnc1N2C [Example 8, 5,8,11-Trimethyl-5,11-dihydro-6H-pyrido[2,3-b][1,4]benzodiazepin-6-one]
[1]
  inhibition at 10 µg/mL: 40%

## CCN1C(=O)c2ccccc2N(C)c2ncccc21 [Example 9d, 5-Ethyl-11-methyl-5,11-dihydro-6H-pyrido[2,3-b][1,4]benzodiazepin-6-one]
[1]
  inhibition at 10 µg/mL: 24%

## CCN1C(=O)c2cccc(C)c2N(CC)c2ncccc21 [Example 3, 5,11-Diethyl-10-methyl-5,11-dihydro-6H-pyrido[2,3-b][1,4]benzodiazepin-6-one]
[1]
  inhibition at 10 µg/mL: 87%
